Assay results taken from patent publication US12667569B2, “Use of sepiapterin and metabolites thereof to treat radiation exposure” (PTC Therapeutics MP, Inc., priority 2019, dated 2026).
“Also recorded” adds a separate entry of the source.

What was measured:
[1] = tested on: C57L/J mice; assay: Assessment of lung injury by breathing rate (MouseOx) after irradiation; type: in vivo; conditions: irradiated mice
Experimental: (§1) Equal numbers of male and female mice were distributed to each group. While under ketamine/xylazine anesthesia (100 mg/kg and 10 mg/kg, respectively) mice received 5 Gy total body irradiation (TBI), immediately followed by a top-up dose of 6.5 Gy to the thorax, for a total thoracic dose of 11.5 Gy, using a Varian 21 EX LINAC (Palo Alto, CA). Twenty-four hours post-irradiation, mice were treated once daily for 6 days by oral gavage with 1 mg/kg sepiapterin or 5 mg/kg BH4 dissolved in water (FIG. 1).
The breathing rate was measured every other week starting in week 6 using the Mouse Ox system (STARR Life Sciences Corp., Allison Park, PA). The animal was placed under ketamine/xylazine anesthesia and shaved in the area of analysis. 10 min post injection the animal was placed in a supine position with the sensor clipped to the upper thigh. The breathing rate was recorded for 3 min. The breathing rate was calculated using an algorithm in the Mouse Ox software.

[2] = tested on: C57L/J mice; assay: Survival over 180 days post IR (Kaplan Meyer); type: in vivo
Experimental: as §1
To determine whether the improved cardiopulmonary function impacted overall survival the mice were followed over 180 days post IR.

[3] = tested on: exosomal miRNAs; assay: Serum exosomal miRNA expression after irradiation; type: in vivo, mice
Experimental: Blood was collected by cardiac puncture using EDTA vials. Blood samples were centrifuged 3,000×g for 25 minutes, and plasma fraction was aliquoted and saved in a vapor phase of liquid nitrogen. Exosomes were isolated from the plasma of mice at the time points shown in FIGS. 6A-6C using an Exosome isolation kit from 101Bio. Exosome concentrations were quantified by EXOCET Exosome Quantitation Kit (System Biosciences). Equal exosome number from 5 animals were combined for each time point, and total exosomal RNA was extracted by using miRNeasy Micro Kit (QIAGEN). For the miRNAs expression profiling the miRCURY LNA™ Universal RT microRNA PCR assay (QIAGEN) and ExiLENT SYBR® Green Maser Mix (QIAGEN) were used. The initial estimation of exosomal miRNAs expression was performed by using Serum/Plasma LNA™ miRNA PCR Panel (Cat. #YAHS-106Y. QIAGEN) on the QuantStudio 5 RT-PCR machine (Applied Biosystems).
The first group included let-7a-5p, miR-1, miR-106b-3p, miR-106b-5p, miR-126-3p, miR-181a-5p, miR-335-3p, and miR-335-5p. […] The second group included let-7g-5p, let-7i-5p, and miR-16-5p. There were no significant differences between males and females both in terms of exosomal miRNA expression altered by IR or the effects of sepiapterin on miRNA expression.

[4] = tested on: C57L/J mice; assay: Echocardiography: contractile reserve (isoproterenol response), myocardial performance index, IRT after irradiation; type: in vivo
Experimental: Both male and female C57L/J wild-type 6-8-week-old mice were purchased from Jackson Laboratory (Bar Harbor, ME). The mice were housed with a 12:12 h light-dark schedule and access to water and food ad libitum. The experiments were conducted under the guidelines of laboratory animals for biomedical research published by the National Institutes of Health (rev. 2011). The study protocol was approved by the Institutional Animal Care and Use Committee of Virginia Commonwealth University.
as §1
All mice underwent transthoracic echocardiography at baseline (before irradiation (IR)), at 8, 30, 60, 90 and 180 days, under light anesthesia (30 mg/kg pentobarbital sodium). Echocardiography was performed with the Vevo770 imaging system (VisualSonics, Toronto, Ontario, Canada) and a 30-MHz probe. The heart was visualized in B-mode from parasternal short-axis and apical views. The left ventricular (LV) end-diastolic diameter (EDD), LV end-systolic diameter (ESD), LV anterior wall diastolic thickness (AWDT), and LV posterior wall diastolic thickness (PWDT), LV anterior wall systolic thickness (AWST), and LV posterior wall systolic thickness (PWST) were measured at M-mode, according to the American Society of Echocardiography recommendations. LV ejection fraction (EF), and LV mass were calculated from the measurements of wall thickness and chamber diameters. The LVEF was derived using the Teicholz formula (LVEF=[LVEDD3−LVESD3]/LVEDD3), as previously described. The transmitral LV outflow tract Doppler spectra (E, A, ET) was recorded from an apical four-chamber view, and the myocardial performance index (MPI) was calculated as the […] isovolumetric contraction time (ICT) and isovolumetric relaxation time (IRT) divided by the ejection time (ED. The investigators performing and reading the echocardiograms were blinded to the treatment allocation. A beta-adrenergic agonist, isoproterenol (Sigma Aldrich, St. Louis, MO, USA) 20 ng/mouse, was used to assess cardiac contractility in irradiated mice without SP treatment. Cardiac contractility (contractile reserve) was expressed as percentage change in LVEF measured at rest (LVEFr) and 3 min after isoproterenol injection (LVEFi) and calculated as [(LVEFi−LVEFr)/LVEFr]*100. Measurements of the contractile reserve were taken at baseline, 8, 30, 60, 90 and 180 days after IR. Echocardiogram assessment was performed by an operator blinded to treatment allocation.

[5] = tested on: plasma IL-6, fibrinogen, neutrophil elastase, C-reactive protein; assay: Plasma ELISA of IL-6, fibrinogen, neutrophil elastase, C-reactive protein after irradiation; type: in vivo, mice
Experimental: At the time of sacrifice, blood was obtained by heart puncture into EDTA containing tubes and centrifuged at 3000 rpm for 25 mins to isolate the plasma. The following ELISA plates from Abcam were used for analysis: fibrinogen (ab213478), neutrophil elastase (ab252356), C-reactive protein (ab157712) and IL-6 (ab100713). Plasma samples were processed and ELISA kits were run according to manufacturer recommendations. All cytokines were reported with an absolute unit. Key molecular players of the coagulation cascade like tissue factor, thrombin, and fibrinogen are epidemiologically and mechanistically linked with an inflammatory component. Genetic and pharmacologic studies have unraveled pivotal roles for fibrinogen in determining the extent of local or systemic inflammation. Neutrophil elastase, a serine protease present in the azurophil granules of neutrophils, is released in an inflammatory state and disintegrates extracellular matrices due to its low substrate specificity, resulting in tissue injury. Neutrophil elastase is one of the most destructive enzymes in the body. Once unregulated, this enzyme disturbs the function of the lung permeability barrier and induces the release of pro-inflammatory cytokines with stimulation of acute lung injury. […] High levels of IL-6 in blood plasma may exacerbate the inflammatory response in the lung tissue, which ultimately causes IL-6 leakage to bronchoalveolae and further lung damage. High levels of IL-6 in the lung tissue may attract more inflammatory cells such as neutrophils, monocytes, macrophages to the injured local lung which ultimately causes serious damage to the lung and leads to chronic fibrosis. An acute raise of IL-6 in plasma can lead to increases in C Reactive Protein (CRP). C Reactive Protein (CRP) is produced by the liver and is a biomarker for general stress response to inflammation or infectious agents. It was shown that serum CRP level may be an effective indicator for predicting the occurrence of radiation pneumonitis and valuable factor for evaluating radiation-induced lung-injury extent.

[6] = tested on: cytokines' mRNAs in lung tissue; assay: Cytokine mRNA expression (qPCR) in lung tissue after irradiation; type: in vivo, mice
Experimental: (§2) Total RNA was isolated from the lung and heart tissue samples following the manufacturers instructions with the RNeasy Mini kit (Qiagen). The RNA concentration was evaluated by using a NanoDrop ND-1000 spectrophotometer (Thermo Scientific). RNA purity was assessed by the ratios of A260/A280 and A260/A230. RNA integrity was evaluated by the ratio of 28S/18S ribosomal RNA (rRNA) and the RNA integrity number (RIN) using an Agilent 2100 BioAnalyzer (Agilent Technologies). cDNA synthesis and genomic DNA elimination were performed by using RT2 First Strand Kit (QIAGEN). Samples were amplified using RT2 SYBR® Green qPCR Mastermix probes from QIAGEN on the QuantStudio 5 RT-PCR machine (Applied Biosystems). The following RT2 qPCR Primer Assays (QIAGEN) were used: Mouse Actin-β (NM_007393), Mouse Bmp2 (NM_007553), Mouse Ccl2 (NM_011333), Mouse Ctgf (NM_010217), Mouse IL-1β (NM_008361), Mouse IL-6 (NM_031168), Mouse IL-10 (NM_010548), Mouse IL-17α (NM_010552), Mouse Runx2 (NM_001145920), Mouse Spp1 (NM_001204201), Mouse TGF-β1 (NM_011577), Mouse Trim72 (NM_001079932).

[7] = tested on: cytokines' mRNAs in lung tissue; assay: as above; type: in vivo, mice; conditions: 16 weeks after IR, mean±SD, vehicle 4.25±0.537
[8] = tested on: cytokines' mRNAs in heart tissue; assay: Cytokine mRNA expression (qPCR) in heart tissue after irradiation; type: in vivo, mice; conditions: 8 days, 30 days, 16 weeks after IR, SP vs vehicle
Experimental: as §2

[9] = irradiated mice, BH4 5 mg/kg oral once daily 6 days from 24 h post-IR
[10] = 30 days after IR, SP-treated vs vehicle-treated

## C[C@H](O)[C@H](O)[C@H]1CNc2[nH]c(N)nc(=O)c2N1 [BH4, Tetrahydrobiopterin]
[1]; 5 mg/kg BH4 for 6 days, vs vehicle
  development of lung injury: significant delay in the development of lung injury
[1]; 5 mg/kg BH4 for 6 days, vs vehicle, 5 mg/kg
  lung function (breathing rate): significantly reduced impairment of lung function at all points measured; also recorded: decreasing breathing frequency
[2]; irradiated mice, oral BH4 starting 24 hours after radiation
  survival: increased survival
[3]; irradiated mice, BH4 treatment (FIG. 6A)
  exosomal expression of miR-15b-3p, miR-106a-5p, miR-133b, miR-136-5p, miR-451a, miR-1, miR-335-3p, let-7d-3p, let-7c-5p: increases in expression
[4]; [9]
  contractile reserve: enhanced contractile reserve
  systolic and diastolic function: improved systolic and diastolic function

## C[C@H](O)C(=O)C1=Nc2c([nH]c(N)nc2=O)NC1 [SP, Sepiapterin]
[1]; 1 mg/kg/day SP for 6 days, vehicle 10 weeks
  time to development of lung injury: 14 weeks
[1]; 1 mg/kg/day SP for 6 days, vs vehicle, 1 mg/kg/day
  lung function (breathing rate): significantly reduced impairment of lung function at all points measured; also recorded: decreasing breathing frequency; also recorded: significantly improved pulmonary function at all points measured
[2]; 11.5 Gy total thoracic dose, 1 mg/kg/day SP for 6 days, untreated 40%
  mice alive at 180 days: 71%
[2]; 11.5 Gy total thoracic dose, 1 mg/kg/day SP for 6 days, vs irradiated without treatment, 1 mg/kg/day
  overall survival: significantly delayed and overall improved survival; also recorded: increased survival
[5]; 4 days after IR, vehicle 304.05±153.23
  plasma level of IL-6: 97.00 ± 45.71 pg/mL
[5]; 8 days after IR, vehicle 606.09±72.72
  plasma level of IL-6: 49.85 ± 39.36 pg/mL
[5]; 8 days after IR, vehicle 948.77±98.54
  plasma level of fibrinogen: 332.38 ± 109.02 µg/mL
[5]; 180 days after IR, vehicle 25.21±6.54
  plasma level of neutrophil elastase: 12.15 ± 2.87 ng/mL
[5]; 180 days after IR, vehicle 197.22±55.55
  plasma level of IL-6: 40.06 ± 43.26 pg/mL
[5]; any time-point after IR, SP vs vehicle
  plasma C reactive protein: did not demonstrate significant difference
[6]; 16 weeks after IR, mean±SD, vehicle 3.26±0.339
  relative expression of TGF-β1 mRNA: 1.53±0.367
[6]; 16 weeks after IR, mean±SD, vehicle 4.5±0.824
  relative expression of IL-17A mRNA: 2.12±1.173
[6]; 16 weeks after IR, mean±SD, vehicle 28.85±5.987
  relative expression of IL-6 mRNA: 17.05±4.12
[6]; 8 days after IR, mean±SD, vehicle 9.19±2.783
  relative expression of IL-17A mRNA: 2.71±1.874
[6]; 8 days after IR, mean±SD, vehicle 16.88±4.91
  relative expression of IL-6 mRNA: 1.36±0.509
[6]; 8 days after IR, relative to non-irradiated control, mean±SD, vehicle 2.9±0.649
  relative expression of IL-1β mRNA: 1.54±0.825
[6]; 30 days after IR, SP vs vehicle
  relative expression of Ccl2 mRNA: no significant difference between Vehicle-treated and SP-treated animal groups
[6]; 30 days after IR, mean±SD, vehicle 3.39±0.532
  relative expression of IL-1β mRNA: 1.66±0.51
[6]; 30 days after IR, mean±SD, vehicle 5.65±2.263
  relative expression of IL-17A mRNA: 1.49±0.379
[6]; 30 days after IR, mean±SD, vehicle 9.09±0.533
  relative expression of IL-6 mRNA: 4.96±0.905
[3]; [10]
  exosomal expression of let-7a-5p, miR-1, miR-106b-3p, miR-106b-5p, miR-126-3p, miR-181a-5p, miR-335-3p, miR-335-5p: significantly lower in vehicle-treated animals comparing with SP-treated animals
  exosomal expression of let-7g-5p, let-7i-5p, miR-16-5p: significantly higher in vehicle-treated animals comparing with SP-treated animals
[4]; irradiated male vs female mice, 1 mg/kg SP
  systolic and diastolic function response, evaluated by sex: no significant differences in heart function response
[4]; irradiated male vs female mice, SP 1 mg/kg
  mitigation of loss in contractile reserve, evaluated by sex: equally effective in mitigating this loss in contractile reserve
[4]; irradiated mice (5 Gy TBI + 6.5 Gy thorax), SP 1 mg/kg oral once daily 6 days from 24 h post-IR, up to 180 days, vs vehicle
  contractile reserve (response to isoproterenol): restore the response to beta-adrenergic stimulation by isoproterenol; also recorded: enhanced contractile reserve; also recorded: blunted the drop in the contractile reserve at all the time points
[4]; irradiated mice, SP 1 mg/kg oral once daily 6 days from 24 h post-IR, up to 180 days, vs vehicle
  myocardial performance index (Tei index) and isovolumetric relaxation time (IRT); systolic and diastolic function: ameliorating the progressive increase in myocardial performance index and IRT; also recorded: improved systolic and diastolic function; also recorded: blunted the increase in the Tei index and IRT at all the time points
[7]
  relative expression of Spp2 mRNA: 2.38±0.211
[8]
  expression of all evaluated cytokines (Bmp2, Ccl2, Ctgf, IL-1β, IL-6, IL-10, IL-17A, IL-33, Runx2, Spp2, TGF-β1, Trim72): no significant difference in expression between Vehicle-treated and SP-treated groups
